Usually Kd stands for the constant that tells how readily two partners part at equilibrium. A lower Kd goes with tighter binding.

A value given as a limit tells only on which side of the number the result lay.

This note sets out measurements from patent US20240342318A1, “CONJUGATES COMPRISING COVALENT BINDERS FOR TARGETING INTRACELLULAR PROTEINS” (RayzeBio, Inc., priority 2021, published 2024).

The target of assay [1] is T1, EGFR (L858R, T790M) (Homo sapiens, UniProt P00533, L858R/T790M).
T1 construct: The EGFR constructs span amino acids R669 to V1011 of the EGFR protein; T7 phage display fusion (kinase-tagged T7 phage) or DNA tag for qPCR; made in house; host or cells: E. coli (BL21-derived) infected with T7 phage for most assays; remaining kinases in HEK-293
Description: In vitro kinase binding assay (phage/DNA-tagged kinase, affinity beads, qPCR), mutant EGFR. As to the method:
(§1) For most assays, kinase-tagged T7 phage strains were prepared in an E. coli host derived from the BL21 strain. For the EGFR assays, wild-type EGFR, or mutant EGFR (T790M, L858R) were utilized. The EGFR constructs span amino acids R669 to V1011 of the EGFR protein. E. coli were grown to log-phase and infected with T7 phage and incubated with shaking at 32° C. until lysis. The lysates were centrifuged and filtered to remove cell debris. The remaining kinases were produced in HEK-293 cells and subsequently tagged with DNA for qPCR detection. Streptavidin-coated magnetic beads were treated with biotinylated small molecule ligands for 30 minutes at room temperature to generate affinity resins for kinase assays. The liganded beads were blocked with excess biotin and washed with blocking buffer (SeaBlock (Pierce), 1% BSA, 0.05% Tween 20, 1 mM DTT) to remove unbound ligand and to reduce non-specific binding. Binding reactions were assembled by combining kinases, liganded affinity beads, and test compounds in 1× binding buffer (20% SeaBlock, 0.17×PBS, 0.05% Tween 20, 6 mM DTT). Test compounds were prepared as 111× stocks in 100% DMSO. Kds were determined using an 11-point 3-fold compound dilution series with three DMSO control points. All compounds for Kd measurements are distributed by acoustic transfer (non-contact dispensing) in 100% DMSO. The compounds were then diluted directly into the assays such that the final concentration of DMSO was 0.9%. All reactions performed in polypropylene 384-well plate. Each was a final volume of 0.02 ml. The assay plates were incubated at room temperature with shaking for 1 hour and the affinity beads were washed with wash buffer (lx PBS, 0.05% Tween 20). The beads were then re-suspended in elution buffer (lx PBS, 0.05% Tween 20, 0.5 μM nonbiotinylated affinity ligand) and incubated at room temperature with shaking for 30 minutes. The kinase concentration in the eluates was measured by qPCR.
On the technique in general: Quantitative PCR measures a nucleic acid by following its amplification.

Assay [2] has as its target T2, EGFR (WT) (Homo sapiens, UniProt P00533).
T2 construct: The EGFR constructs span amino acids R669 to V1011 of the EGFR protein; T7 phage display fusion (kinase-tagged T7 phage) or DNA tag for qPCR; made in house; host or cells: E. coli (BL21-derived) infected with T7 phage for most assays; remaining kinases in HEK-293
Briefly: In vitro kinase binding assay (phage/DNA-tagged kinase, affinity beads, qPCR), wild-type EGFR. As for the experimental part:
as §1

T1 sequence (P00533 669-1011 T790M/L858R): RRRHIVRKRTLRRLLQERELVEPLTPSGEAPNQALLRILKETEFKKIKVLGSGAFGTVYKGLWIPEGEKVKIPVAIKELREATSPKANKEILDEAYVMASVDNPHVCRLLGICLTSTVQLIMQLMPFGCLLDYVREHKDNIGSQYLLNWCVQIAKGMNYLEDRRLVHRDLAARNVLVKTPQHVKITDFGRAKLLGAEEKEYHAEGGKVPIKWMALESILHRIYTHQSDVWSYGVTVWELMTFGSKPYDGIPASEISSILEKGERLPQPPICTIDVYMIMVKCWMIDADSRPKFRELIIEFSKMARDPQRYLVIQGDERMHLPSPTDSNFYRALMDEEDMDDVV
T2 sequence (P00533 669-1011): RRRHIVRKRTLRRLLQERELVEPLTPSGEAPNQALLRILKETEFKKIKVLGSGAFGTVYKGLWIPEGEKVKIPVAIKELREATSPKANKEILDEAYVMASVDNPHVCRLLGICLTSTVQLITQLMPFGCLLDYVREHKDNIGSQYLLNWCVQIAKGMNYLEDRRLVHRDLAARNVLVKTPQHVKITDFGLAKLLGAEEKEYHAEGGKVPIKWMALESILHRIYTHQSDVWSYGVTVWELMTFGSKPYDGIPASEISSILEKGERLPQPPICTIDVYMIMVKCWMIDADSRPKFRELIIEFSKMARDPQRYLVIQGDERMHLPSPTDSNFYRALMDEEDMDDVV

Turning to `C=CC(=O)N1C[C@H](COc2nc(Nc3cnn(CCCCCNC(=O)CN4CCN5CCN6CCN(CC4)CC(=O)[O][Lu]([O]C(=O)C5)[O]C(=O)C6)c3)nc3[nH]cc(Cl)c23)[C@@H](OC)C1` [Compound 007-Lu, N-[5-[4-[[5-chloro-4-[[(3R,4R)-4-methoxy-1-prop-2-enoyl-pyrrolidin-3-yl]methoxy]-7H-pyrrolo [2,3-d]pyrimidin-2-yl]amino]pyrazol-1-yl]pentyl]-2-(3,16,19-trioxo-2,17,18-trioxa-5,8,11,14-tetraza-1λ3-lutetatricyclo[9.6.3.25,14]docosan-8-yl)acetamide], the Kd in assay [1] is below 1 nM; in assay [2], 100 to 1000 nM. The “Binding Affinity ratio of WT/DM” value in assay [1] (ratio of Kd EGFR (WT) to Kd EGFR (L858R, T790M)) is given as “C (100 < C ≤ 1000)”.
